Tests used:
[1] = system: rAPPC100sub and rNOTCH1‐4subs; test: Cell-free γ-secretase assay, rAPPC100sub and rNOTCH1-4subs (IP-MS); assay type: biochemical, human; conditions: 25 nM
Method: cDNAs encoding NOTCH1, NOTCH2, NOTCH3, NOTCH4, CD44, and VEGFR1 γ‐secretase substrates were generated by gene synthesis conducted by Genscript (Piscataway, NJ, USA). The general design of the constructs was similar to a recombinant substrate (APP C100) that has been used by our group and others to assay Aβ production in in vitro γ‐secretase assays. All constructs contain an NH2‐terminal amyloid β peptide (Aβ) epitope tag followed by the juxtamembrane region (JMD) of the given substrate and a FLAG tag ([…]) at the COOH‐terminal. A schematic representation of the substrates is provided in Fig 1A, and sequences of the cDNAs and the proteins are provided in Appendix Fig S5. For clarity, these substrates are referred to as recombinant substrates (e.g., Notch1 is rNOTCH1sub). Substrate cDNAs were cloned into pET21 (Novagen, Billerica, MA, USA) for expression in bacterial cells.
pET21 plasmids containing the substrate cDNAs were transformed into BL21 E. coli. cells. Overexpression was induced with 0.5 mM isopropyl β‐D‐1‐thiogalactopyranoside (IPTG). […]
Immunoprecipitation and mass spectrometry of Aβ and Aβ‐like peptides in cell‐free assay or conditioned media were performed as previously described (Ran et al, 2014). […] Samples were analyzed using a Bruker Microflex LRF‐MALDI‐TOF mass spectrometer.

[2] = system: MDA‐MB‐231 and MDA‐MB‐468 mammospheres; test: Secondary mammosphere formation / limiting dilution assay and CD44+CD24low flow cytometry; assay type: cell-based
Method: Suppression of breast cancer stem cells is thought to be a key mechanism of action for the anti‐tumor activity of GSIs in breast cancer models and in patient‐derived mammospheres (Takebe et al, 2015). […] Stem‐like cells are enriched in secondary mammospheres, but their number declines after four to five passages (Dontu et al, 2003; Dey et al, 2009). Therefore, we compared the GSIs in a secondary mammosphere formation assay at 1, 5, and 10 μM concentrations (Fig 7A and B for 10 μM and Appendix Fig S4 for 1 and 5 μM). We separately counted large mammospheres (> 500 μm in diameter) and small mammospheres (100–500 μm in diameter).
For limiting dilution assay, we used two distinct TNBC cell lines. MDA‐MB‐231 is molecularly “Mesenchymal”, PTEN wild type. MDA‐MB‐468 (ATCC, Manassas, VA) is molecularly “Basal‐like” and PTEN null. GSI‐treated (1, 5, and 10 μM twice/week, for 1 week) mammospheres were dissociated by trypsinization, and equal numbers of viable cells were re‐plated at clonal density (1,000, 100, and 10 cells) without GSIs. After 7‐day incubation, large mammospheres (> 500 μm) and small mammospheres (100–500 μm) were counted manually using a Nikon Eclipse Microscope. Next, we investigated whether PF‐3084014 selectively affected cancer stem‐like cells (CSCs) using both MDA‐MB‐231 and MDA‐MB‐468 cell lines. Mammospheres were treated with increasing concentration of PF‐3084014 for 1 week, and CSCs (CD44^+CD24^low) (Azzam et al, 2013) were analyzed by flow cytometry using anti‐human PE‐CD44 (Clone G44‐26) and FITC‐CD24 (Clone ML5) (BD Biosciences) antibody.

SMILES | cleavage of the rAPPC100sub and rNOTCH1‐4subs [1] | absolute cell counts of mammospheres ([2]; 5 and 10 μM, both cell lines) | percentage of CD44+CD24low cells ([2]; all concentrations tested, flow cytometry) | total cell number and CSC fraction ([2]; both cell lines, 1 week treatment) | absolute numbers of CD44+CD24low cells ([2]; flow cytometry)
CN1C(=O)[C@@H](NC(=O)[C@H](CCC(F)(F)F)[C@H](CCC(F)(F)F)C(N)=O)N=C(c2ccccc2)c2ccccc21 [BMS‐906024] | completely blocked cleavage | – | – | – | –
CCC[C@H](N[C@H]1CCc2cc(F)cc(F)c2C1)C(=O)Nc1cn(C(C)(C)CNCC(C)(C)C)cn1 [PF‐3084014] | – | significantly more potent than the other compounds | decrease in percentage | decreased the total cell number and the CSC fraction | dose‐dependent decrease

Source: PMC5494507, “γ‐Secretase inhibitors in cancer clinical trials are pharmacologically and functionally distinct” (EMBO Molecular Medicine, 2017)
